How the values were obtained:
[1] = target: T1, Beta-1 adrenergic receptor (Homo sapiens, UniProt P08588); assay: Agonistic activity against the cloned human Beta-1 adrenergic receptor was measured by its by its ability to stimulate adenylyl cyclase; format: functional
Target sequence in this assay (P08588 whole entry): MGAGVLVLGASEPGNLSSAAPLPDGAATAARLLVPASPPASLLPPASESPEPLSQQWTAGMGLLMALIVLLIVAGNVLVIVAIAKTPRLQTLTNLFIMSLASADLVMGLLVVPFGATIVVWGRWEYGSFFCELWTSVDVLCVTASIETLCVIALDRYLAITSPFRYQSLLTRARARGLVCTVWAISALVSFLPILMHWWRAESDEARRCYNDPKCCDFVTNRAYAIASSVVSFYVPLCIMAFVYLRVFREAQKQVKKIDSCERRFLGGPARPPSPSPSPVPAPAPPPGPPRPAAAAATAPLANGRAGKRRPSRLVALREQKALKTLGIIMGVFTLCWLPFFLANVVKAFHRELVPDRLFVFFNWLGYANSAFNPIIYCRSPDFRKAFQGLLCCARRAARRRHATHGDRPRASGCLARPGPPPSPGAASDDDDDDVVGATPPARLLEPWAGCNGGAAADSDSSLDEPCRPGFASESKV

[2] = target: T1, Beta-1 adrenergic receptor; assay: Inhibitory activity against cloned human Beta-1 adrenergic receptor in the presence of [125I]iodocyanopindolol in CHO cells by receptor binding assay; format: cell-based
Target sequence in this assay (P08588 whole entry): as above

[3] = target: T2, Beta-3 adrenergic receptor (Homo sapiens, UniProt P13945); assay: Adenylyl cyclase activation expressed as percent of maximal stimulation with isoproterenol at the cloned human Beta-3 adrenergic receptor at 10 uM; format: functional
Target sequence in this assay (P13945 whole entry, looked up): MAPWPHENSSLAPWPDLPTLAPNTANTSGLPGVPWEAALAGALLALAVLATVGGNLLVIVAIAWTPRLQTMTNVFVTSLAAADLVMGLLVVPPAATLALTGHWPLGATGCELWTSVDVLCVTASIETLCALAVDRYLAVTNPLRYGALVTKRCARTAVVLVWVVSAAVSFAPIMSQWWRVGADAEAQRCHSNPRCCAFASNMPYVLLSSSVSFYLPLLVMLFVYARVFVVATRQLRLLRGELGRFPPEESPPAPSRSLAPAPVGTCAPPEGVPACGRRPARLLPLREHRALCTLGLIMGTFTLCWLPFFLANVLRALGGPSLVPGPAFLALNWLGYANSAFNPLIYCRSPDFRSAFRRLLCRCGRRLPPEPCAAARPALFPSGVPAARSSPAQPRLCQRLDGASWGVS

[4] = target: T3, Beta-2 adrenergic receptor (Homo sapiens, UniProt P07550); assay: Inhibitory activity against cloned human Beta-2 adrenergic receptor in the presence of [125I]iodocyanopindolol in CHO cells by receptor binding assay; format: cell-based
Target sequence in this assay (P07550 whole entry): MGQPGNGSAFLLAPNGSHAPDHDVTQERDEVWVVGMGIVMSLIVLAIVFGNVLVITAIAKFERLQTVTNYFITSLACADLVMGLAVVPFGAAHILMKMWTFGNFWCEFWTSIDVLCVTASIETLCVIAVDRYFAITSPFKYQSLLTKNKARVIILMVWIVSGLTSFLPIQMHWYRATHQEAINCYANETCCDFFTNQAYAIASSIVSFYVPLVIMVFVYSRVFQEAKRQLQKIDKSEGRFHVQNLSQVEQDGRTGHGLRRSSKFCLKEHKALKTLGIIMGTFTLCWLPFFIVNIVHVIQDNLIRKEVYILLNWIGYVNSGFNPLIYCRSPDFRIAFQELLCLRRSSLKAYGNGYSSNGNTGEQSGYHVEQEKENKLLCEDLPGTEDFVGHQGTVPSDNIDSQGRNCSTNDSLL

[5] = target: T2, Beta-3 adrenergic receptor; assay: Agonistic activity against the cloned human Beta-3 adrenergic receptor was measured by its by its ability to stimulate adenylyl cyclase; format: functional
Target sequence in this assay (P13945 whole entry): as the sequence (P13945 whole entry, looked up) above

[6] = Oral bioavailability in dog (p.o. dosing of 0.05 M citric acid/0.05 M hydrochloric acid solution); format: ADME, organism-based, Canis lupus familiaris; details: in vivo
[7] = Compound was evaluated for the half-life (t 1/2) in hours; format: ADME, organism-based, Canis lupus familiaris; details: dog, in vivo
[8] = Oral bioavailability in dog; format: ADME, organism-based, Canis lupus familiaris; details: in vivo
[9] = target: T2, Beta-3 adrenergic receptor; assay: Inhibitory activity against cloned human Beta-3 adrenergic receptor in the presence of [125I]iodocyanopindolol expressed in CHO cells by receptor binding assay; format: cell-based
Target sequence in this assay (P13945 whole entry): as the sequence (P13945 whole entry, looked up) above

[10] = target: T3, Beta-2 adrenergic receptor; assay: Adenylyl cyclase activation expressed as percent of maximal stimulation with isoproterenol at the cloned human Beta-2 adrenergic receptor at 10 uM; format: functional
Target sequence in this assay (P07550 whole entry, looked up): as the sequence (P07550 whole entry) above

[11] = tested on: Monkey; assay: Compound was tested for agonistic activity for glycerolemia in rhesus monkey; format: functional; details: Cercopithecidae, in Macaca mulatta
[12] = target: T3, Beta-2 adrenergic receptor; assay: Agonistic activity against the cloned human Beta-2 adrenergic receptor was measured by its by its ability to stimulate adenylyl cyclase; format: functional
Target sequence in this assay (P07550 whole entry): as above

[13] = target: T1, Beta-1 adrenergic receptor; assay: Adenylyl cyclase activation expressed as percent of maximal stimulation with isoproterenol at the cloned human Beta-1 adrenergic receptor at 10 uM; format: functional
Target sequence in this assay (P08588 whole entry, looked up): as the sequence (P08588 whole entry) above

[14] = Oral bioavailability in rat; format: ADME, organism-based; details: in vivo
[15] = target: T1, Beta-1 adrenergic receptor; assay: Inhibitory activity against cloned human Beta-1 adrenergic receptor in the presence of [125I]iodocyanopindolol expressed in CHO cells by receptor binding assay; format: cell-based
Target sequence in this assay (P08588 whole entry): as above

[16] = target: T1, Beta-1 adrenergic receptor; assay: Adenylyl cyclase activation expressed as percent of maximal stimulation with isoproterenol against the cloned human Beta-1 adrenergic receptor 10 uM; format: functional
Target sequence in this assay (P08588 whole entry, looked up): as the sequence (P08588 whole entry) above

[17] = target: T3, Beta-2 adrenergic receptor; assay: Adenylyl cyclase activation expressed as percent of maximal stimulation with isoproterenol against the cloned human Beta-2 adrenergic receptor at 10 uM; format: functional
Target sequence in this assay (P07550 whole entry, looked up): as the sequence (P07550 whole entry) above

Structure (SMILES)	Activation [3] [%]	IC50 [4] [nM]	EC50 [5] [nM]	bioavailability [6] [%]	half-life [7] [h]	EC50 [1] [nM]	IC50 [2] [nM]	further results
CCCCCCCCn1nnn(-c2ccc(S(=O)(=O)Nc3ccc(CCNC[C@H](O)c4cccnc4)cc3)cc2)c1=O	57	570	6.3	–	–	370	1400	–
O=c1n(CCCC2CCCC2)nnn1-c1ccc(S(=O)(=O)Nc2ccc(CCNC[C@H](O)c3cccnc3)cc2)cc1	75	1600	13	–	–	1900	–	bioavailability [8]: 27%; IC50 [9]: 92 nM; Activation [10]: 26%; ED50 [11]: 0.21 mg/kg; EC50 [12]: 1800 nM; Activation [13]: 33%; bioavailability [14]: 27%; IC50 [15]: 3400 nM
CCCCCCn1nnn(-c2ccc(S(=O)(=O)Nc3ccc(CCNC[C@H](O)c4cccnc4)cc3)cc2)c1=O	67	3300	30	–	–	–	5000	Activation [16]: 19%; Activation [17]: 9%

More lines, main results first:

Activation [3] [%]	IC50 [4] [nM]	EC50 [5] [nM]	bioavailability [6] [%]	half-life [7] [h]	Structure (SMILES)	EC50 [1] [nM]	IC50 [2] [nM]	further results
–	–	–	12	3.6	CCCCCCn1ccn(-c2ccc(S(=O)(=O)Nc3ccc(CCNC[C@H](O)c4cccnc4)cc3)cc2)c1=O [L-764646]	–	–	–
–	–	–	17	3.5	O=C1N(CCCC2CCCC2)CCN1c1ccc(S(=O)(=O)Nc2ccc(CCNC[C@H](O)c3cccnc3)cc2)cc1 [L-766892]	–	–	–

Reference: ChEMBL document CHEMBL1132038, “L-770,644: a potent and selective human beta3 adrenergic receptor agonist with improved oral bioavailability” (Bioorg Med Chem Lett, 1999)
